Among the data in DBAASP are MIC values, retold here.

Experiment in all cases: ≥ marks a high value that may be exact or a test limit, other limits are often not marked, values filed in µg/mL are converted to µM
Assay [1] concerns Enterococcus faecalis f43559.
The test system of assay [2] is Klebsiella pneumoniae ESBL 61962.
Assay [3] deals with Pseudomonas aeruginosa PAO1 H103.
In assay [4] the test system is Pseudomonas aeruginosa 213.
The subject of assay [5] is Enterococcus faecalis ATCC 29212.
Assay [6] relates to Enterococcus faecium t62764.
The subject of assay [7] is Escherichia coli ESBL 63103.
In assay [8] the test system is Enterobacter cloacae 218R.
Assay [9] relates to Staphylococcus aureus ATCC 25923.
In assay [10] the test system is Escherichia coli ESBL 64771.
Assay [11] concerns Pseudomonas aeruginosa 9.
The test system of assay [12] is Pseudomonas aeruginosa 198.
Assay [13] deals with Klebsiella pneumoniae ESBL 63575.
For assay [14], the system named is Staphylococcus aureus C623.
For assay [15], the system named is Pseudomonas aeruginosa H1027.
For assay [16], the system named is Pseudomonas aeruginosa LES400.
For assay [17], the system named is Pseudomonas aeruginosa H1030.
For assay [18], the system named is Enterococcus faecalis W61950.
For assay [19], the system named is Enterococcus faecium mic80.
The test system of assay [20] is Stenotrophomonas maltophilia ATCC 13637.
Assay [21] concerns Erwinia amylovora PMV 6076.
For assay [22], the system named is Pseudomonas aeruginosa ATCC 27553.
Assay [23] has as its system Salmonella typhimurium ATCC 50013.
In assay [24] the test system is Pseudomonas syringae pv. syringae EPS 94.
The subject of assay [25] is Xanthomonas arboricola pv. pruni CFBP 5563.
The test system of assay [26] is Bacillus subtilis ATCC 23631.
For assay [27], the system named is Shigella dysenteriae ATCC 51302.
Assay [28] deals with Pseudomonas syringae pv. actinidiae Psa3700.1.1.
Assay [29] deals with Streptococcus pneumoniae ATCC 49619.
Assay [30] concerns Xanthomonas campestris pv. Vesicatoria 2133-2.
Assay [31] relates to Xanthomonas fragariae Xf349-9A.
For assay [32], the system named is Staphylococcus aureus ATCC 29213.
The subject of assay [33] is Enterococcus faecalis ATCC 12953.
For assay [34], the system named is Candida parapsilosis ATCC 22019.
Assay [35] deals with Klebsiella pneumoniae ATCC 13885.
For assay [36], the system named is Trichophyton mentagrophytes.
The test system of assay [37] is Candida albicans 38U.
Assay [38] concerns Proteus mirabilis ATCC 25933.
The subject of assay [39] is Pseudomonas aeruginosa ATCC 15442.
Assay [40] relates to Streptococcus pyogenes ATCC 19615.
Assay [41] deals with Cryptococcus neoformans L26.
For assay [42], the system named is Salmonella enterica subsp. enterica serovar Typhimurium ATCC 14028.
For assay [43], the system named is Bacillus subtilis ATCC 6633.
For assay [44], the system named is Cryptococcus neoformans L30.
Assay [45] has as its system Candida albicans 01U.
In assay [46] the test system is Escherichia coli ATCC 8739.
In assay [47] the test system is Trichophyton rubrum.

In brackets after ≈: the same amount, converted by molar mass.

As a reminder, the MIC is the smallest concentration in the dilution series that meets the test's criterion for growth inhibition. With `CC[C@H](C)[C@H](NC(=O)[C@H](CCCN=C(N)N)NC(=O)[C@@H](N)CCCCN)C(=O)N[C@@H](CCSC)C(=O)N[C@@H](CCCCN)C(=O)N[C@@H](CC(C)C)C(=O)N[C@@H](CCCCN)C(=O)N[C@@H](CCSC)C(=O)N[C@@H](CCCN=C(N)N)C(=O)O` [KRIMKLKMR], the MIC in assay [1] was ≥ 226 µM; in [2], ≥ 226 µM; in [3] it was ≥ 226 µM; in assay [4], ≥ 226 µM; in [5], > 226 µM; in [6] it was ≥ 226 µM. The MIC in assay [7] is ≥ 226 µM; in assay [8], ≥ 226 µM; in [9], > 226 µM; in [10] it was ≥ 226 µM; in assay [11], ≥ 226 µM; in assay [12], ≥ 226 µM. Further, the MIC in assay [13], in assay [14], in [15], in assay [16], in assay [17] and in [18] was ≥ 226 µM throughout. Further, the minimum inhibitory concentration (MIC) in assay [19] and in assay [20] was ≥ 226 µM in each case.
`CC(C)C[C@H](NC(=O)CNC(=O)[C@H](CC(C)C)NC(=O)[C@H](Cc1ccccc1)NC(=O)[C@@H](NC(=O)[C@@H](N)CCCCN)C(C)C)C(=O)N[C@@H](CCCCN)C(=O)O` [KVFLGLK]: the MIC was ≥ 50 µM in assay [21]; ≥ 79.6 µM in [22]; 49.7 µM (≈ 40 µg/mL) in [9]; ≥ 59.7 µM in assay [23]; ≥ 50 µM in assay [24]; ≥ 50 µM in [25]. The MIC was 29.8 µM (≈ 24 µg/mL) in assay [26]; ≥ 59.7 µM in assay [27]; ≥ 50 µM in assay [28]; ≥ 69.6 µM in [29]; ≥ 50 µM in [30]; ≥ 50 µM in assay [31].
Take `CSCC[C@H](NC(=O)CNC(=O)[C@H](CCC(N)=O)NC(=O)[C@H](C)NC(=O)[C@H](CCCN=C(N)N)NC(=O)CNC(=O)[C@H](C)NC(=O)[C@@H](NC(=O)[C@@H](N)CO)C(C)C)C(N)=O` [SVAGRAQGM]: the MIC in [32] was 18 µM (≈ 15.8 µg/mL); in assay [21], ≥ 50 µM; in assay [33], ≥ 36 µM; in [34], ≥ 144 µM; in assay [35], 9 µM (≈ 7.88 µg/mL); in assay [36] it was 18 µM (≈ 15.8 µg/mL). In addition, the MIC was 18 µM (≈ 15.8 µg/mL) in assay [37]; 18 µM (≈ 15.8 µg/mL) in assay [38]; 9 µM (≈ 7.88 µg/mL) in assay [39]; ≥ 36 µM in [40]; ≥ 144 µM in assay [41]; ≥ 50 µM in assay [24]. In addition, the MIC is 18 µM (≈ 15.8 µg/mL) in assay [42]; ≥ 36 µM in [43]; ≥ 144 µM in [44]; ≥ 50 µM in assay [25]; 18 µM (≈ 15.8 µg/mL) in assay [45]; 18 µM (≈ 15.8 µg/mL) in assay [46]. The MIC was ≥ 50 µM in assay [28], 18 µM (≈ 15.8 µg/mL) in [47], ≥ 50 µM in assay [30] and ≥ 50 µM in [31].
